Earlier results, collected in patent publication US10881104B2, “Arthropod control composition, formulation, and method” (priority 2013, dated 2021).

System: D. variabilis
Conditions: unformulated; 2 h after application

For `CCCCCCCCCC(C)=O` [Formulation 2-undecanone, 2-undecanone], the repellency is listed as 74%.
